Results from patent US10845371B2, “Soluble MANF in pancreatic beta-cell disorders” (University of Massachusetts, priority 2012, dated 2020).

Experiments:
[1] = tested on: MEROS-GFP in INS-1 832/13 cells; assay: Non-reducing SDS-PAGE of AMS-modified MEROS-GFP; format: cell-based, rat; conditions: 2 mM DTT, FIG. 13
Procedure: FIG. 13 is photograph of non-reducing polyacrylamide gel electrophoresis (PAGE) of 4-acetamido-4′-maleimidylstilbene-2, 2′-disulfonic acid (AMS)-modified MEROS-GFP in lysate from cells left untreated (left lane) or treated with 2 mM DTT (right lane). The lysates were either left untreated (−βME) (top) or were treated with β-mercaptoethanol (+βME) (bottom) prior to electrophoresis.
Additional experiments were performed to confirm that the MEROS-GFP ratio reflected changes in its redox state in vivo. In these experiments, the redox state of MEROS-GFP was monitored using non-reducing SDS-PAGE in combination with the thiol-alkylating reagent, 4-acetamido-4′-maleimidylstilbene-2, 2′-disulfonic acid (AMS). In these experiments, INS-1 832/13 cells left untreated or treated with 2 mM DTT, were lysed with 1× SDS-PAGE sample buffer containing 25 mM AMS with or without 2-β-mercaptoethanol, boiled at 95° C. for 10 minutes, electrophoresed using SDS-PAGE, and immunoblotted using an anti-GFP antibody.

[2] = tested on: MEROS-GFP (ER redox state) in INS-1 832/13 cells; assay: MEROS-GFP ratio by fluorescent plate reader in INS-1 832/13 cells; format: cell-based, rat; conditions: 30 minutes; H2O2 0.1 or 1 mM, DTT 0.1-10 mM, FIG. 12
Procedure: FIG. 12 is a graph of the MEROS-GFP ratio in INS-1 832/13 cells left untreated (no label), or treated with H2O2 (1 or 0.1 mM H2O2) or DTT (0.1, 0.2, 0.5, 1, 2, 5, or 10 mM DTT). The MEROS-GFP ratio was determined using a plate reader. The data shown are mean±S.D. (n=3).
The ratio between fluorescence from excitation 473 nm versus 394 nm normalized to wild-type untreated cells is called the MEROS-GFP ratio. The MEROS-GFP ratio was determined using a fluorescent plate reader. In these experiments, the INS-1 832/13 cells were plated onto a 96-well plate at 50,000 cells/well, the cells treated with H2O2 or DTT at various concentrations for 30 minutes, and the fluorescence at excitation wavelength 473 nm and emission wavelength 510 nm (for reduced MEROS-GFP) or at excitation wavelength 394 nm and emission wavelength 510 nm (for oxidized MEROS-GFP) was measured. The MEROS-GFP ratio was determined after substraction of background signal.

[3] = tested on: MEROS-GFP (ER redox state) in INS-1 832/13 cells; assay: MEROS-GFP ratio by flow cytometry in INS-1 832/13 cells; format: cell-based, rat
Procedure: FIG. 15 is fluorescence-assisted cell sorting (FACS) data of INS-1 832/13 cells stably-transfected with MEROS-GFP following no treatment or treatment with DTT (0.2, 0.5, or 10 mM DTT). The data was collected using excitation wavelengths of 488 nm and 405 nm, and an emission spectrum of 510 nm.
FIG. 16 is a histogram of FACS data of INS-1 832/13 cells stably-transfected with MEROS-GFP following no treatment or treatment with DTT (0.2 mM, 0.5 mM, or 10 mM DTT). The horizontal axis represents the MEROS-GFP ratio and the vertical axis represents the number of cells.
FIG. 17 is a graph of the median MEROS-GFP ratio in INS-1 832/13 cells stably-transfected with MEROS-GFP following no treatment or treatment with DTT (0.2, 0.5, or 10 mM DTT). The MEROS-GFP values shown are normalized to the untreated values.
FIG. 18 is two graphs showing data from FACS analysis of INS-1 832/13 cells stably-transfected with MEROS-GFP following no treatment or treatment with 1 mM H2O2 for 30 minutes. The right graph is a histogram of the MEROS-GFP ratio in INS-1 832/13 cells not treated or treated with 1 mM H202.
FIG. 19 is a graph of the median MEROS-GFP ratio calculated in INS-1 832/13 cells using FACS analysis following no treatment or treatment with tunicamycin (TM) (5 μM; 24 hours), thapsigargin (TG) (10 nM; 24 hours), TG (1 μM; 4 hours), brefeldin A (BreA) (100 ng/mL; 24 hours), or MG132 ([…]; 24 hours). […] The data are normalized to the median MEROS-GFP ratio calculated for the untreated cells.
The error bars represent ±S.D. The data are normalized to the median MEROS-GFP ratio calculated for the untreated cells.
FIG. 24 is a graph of the median MEROS-GFP ratio in INS-1 832/13 cells left untreated or treatment with human islet amyloid polypeptide (IAPP) (10 μM; 24 hours), mouse IAPP (10 μM; 24 hours), or cytokines ([…] (5 ng/mL), INFγ (100 ng/mL), and TNFα (25 ng/mL); 24 hours)). The error bars represent ±S.D. The data are normalized to the median MEROS-GFP ratio calculated for the untreated cells.
Flow cytometry was used to precisely monitor the MEROS-GFP ratio in vivo.
Experiments were performed to study the relationship between the UPR and the heterogeneity of the redox state. In these experiments, both the redox state and the activation levels of the UPR were monitored in the same cells. To achieve this, a UPR reporter gene encoding the red fluorescent protein, mCherry, driven by the human BiP promoter was constructed. […] This BiP-mCherry reporter plasmid was transfected into INS-1 832/13 cells expressing MEROS-GFP, and FACS analysis was used to monitor the MEROS-GFP ratio and the activation levels of the UPR via BiP-mCherry in the same cells (FIG. 31). The activation levels of BiP-mCherry and the MEROS-GFP ratio were monitored following the induction of ER stress. In these experiments, INS-1 832/13 cells expressing MEROS-GFP were plated onto 6-well plates, treated with each compound for indicated times, and then harvested by trypsinization. After washing with phosphate buffered saline, cells were resuspended in the 11 mM glucose-Hanks buffered salt solution. Flow cytometry analyses were performed with LSRII (BD).

[4] = tested on: MEROS-GFP in INS-1 832/13 cells; assay: Confocal microscopy of MEROS-GFP fluorescence; format: cell-based, rat; conditions: 2 mM DTT, FIG. 11
Procedure: FIG. 11 is a set of four confocal microscopy images of MEROS-GFP gathered using a 476-nm excitation wavelength (bottom two panels) or a 405-nm excitation wavelength (top two panels) in INS-1 832/13 cells treated with (right two panels) or without (left two panels) 2 mM DTT.

[5] = tested on: MEROS-GFP (ER redox state) in NSC34 cells; assay: Time course of MEROS-GFP ratio in NSC34 cells; format: cell-based; conditions: 1 mM DTT for 10 minutes, then wash, FIG. 14
Procedure: FIG. 14 is a graph showing a time course of the MEROS-GFP ratio in NSC34 cells that are treated with 1 mM DTT for 10 minutes, and then washed. The MEROS-GFP ratio was calculated at each minute interval between one minute prior to treatment to four minutes after the wash. The bottom line represents the fluorescence observed with excitation at 473 nm, the black line represents the MEROS-GFP ratio, and the light grey line represents the fluorescence with excitation at 394 nm (n=3; S.D.).
The MEROS-GFP ratio was also monitored in DTT-treated cells at different time points.

[6] = tested on: MEROS-GFP (ER redox state) in INS-1 832/13 cells; assay: MEROS-GFP pilot screen of 1280-compound library and follow-up screens; format: cell-based, rat
Procedure: A pilot screen of a 1280-compound library (MicroSource), a collection of 1,040 U.S. drugs and 240 international drugs (FIG. 39) was performed. In this experiment, INS-1 832/13 cells stably-expressing MEROS-GFP were seeded (20,000 cells/well) in black optical 96-well plates. After 24 hours, 2 μL of each compound was added using the TeMo liquid handling robot. After another 24 hours, cells were challenged with 0.2 mM DTT, a strong reducing agent, for 2 hours, and then the MEROS-GFP ratio was calculated.

[7] = tested on: MEROS-GFP (ER redox state) in INS-1 832/13 cells; assay: Median MEROS-GFP ratio in thapsigargin-treated INS-1 832/13 cells; format: cell-based, rat; conditions: 10 nM thapsigargin; 10 μM pioglitazone or 500 μg/mL TUDCA, FIG. 38 right panel
Procedure: (§1) FIG. 38 is two graphs showing the percentage of dead cells (left graph) or the median MEROS-GFP ratio (right graph) of INS-1 832/13 cells treated with DMSO alone, 10 nM thapsigargin (Tg), 10 nM Tg and 10 μM pioglitazone, or 10 nM Tg and 500 μg/mL tauroursodeoxycholic acid (TUDCA).
To investigate this possibility, two FDA-approved drugs, pioglitazone (Actos) and tauroursodeoxycholic acid (TUDCA), could affect the ER redox state and ameliorate cell death in cellular models of ER diseases. […] Another small molecule, TUDCA, has been used for treatment of gallstones and biliary cirrhosis and shown to mitigate ER stress in mouse models of diabetes.

INS-1 832/13 cells [8] = assay: Percentage of dead cells in thapsigargin-treated INS-1 832/13 cells; format: cell-based, rat
Procedure: as §1
FIG. 43 is a graph of the percentage of dead cells following no treatment or treatment with 10 nM thapsigargin (Tg) or treatment with 10 nM Tg and 10 nM apomorphine.

INS-1 832/13 cells [9] = assay: Mitochondrial membrane potential (MitoProbe staining) after palmitate; format: cell-based, rat; conditions: 0.5 mM palmitate; 10 nM or 50 nM apomorphine, FIGS. 41 and 42
[10] = tested on: WFS1-knockdown β-cells (INS-1 832/13-derived); assay: Doxycycline-inducible WFS1 knockdown INS-1 832/13 cells, cellular model of Wolfram syndrome; format: cell-based, rat; conditions: 2 μM doxycycline shWFS1; 10 nM apomorphine or 10 μM pioglitazone, FIG. 44
Procedure: (§2) FIG. 44 are two immunoblots showing the amount of cleaved caspase 3 (c-caspase3) and cleaved PARP (c-PARP) present in 10 nM thapsigargin-treated primary human islets (right immunoblot) and 2 μM doxycycline-treated WFS1 knockdown INS-1 832/13 cells (shWFS1) (left immunoblot) treated with 10 nM apomorphine or 10 μM pioglitazone.
Additional experiments were performed using INS-1 832/13-derived doxycycline-inducible WFS1 knockdown cells, a cellular model of Wolfram syndrome. This model was used to test whether apomorphine and pioglitazone could prevent cell death.

human islets = assay: Thapsigargin-mediated cell death in primary human islets (cleaved caspase 3 / PARP immunoblot); format: cell-based; conditions: 10 nM thapsigargin; 10 nM apomorphine or 10 μM pioglitazone, FIG. 44
Procedure: as §2
Additional experiments were performed to determine whether apomorphine and pioglitazone can protect human islets from ER stress-mediated cell death.

[11] = tested on: INS-1 832/13 cells expressing MEROS-GFP; assay: Reduced-ER cell population (MEROS-GFP FACS) after palmitate challenge; format: cell-based, rat; conditions: apomorphine 24 hours (10 μM per FIG. 40), then 0.5 mM palmitate 24 hours
INS-1 832/13 cells [12] = assay: Cell viability (propidium iodide) after palmitate; format: cell-based, rat; conditions: 0.5 mM palmitate and 10 nM apomorphine, FIG. 42
INS-1 832/13 cells [13] = assay: Toxicity on INS-1 832/13 cells; format: cell-based, rat

## O[C@H](CS)[C@H](O)CS (racemic) [DTT, dithiothreitol]
[1]
  Redox state of MEROS-GFP (AMS, non-reducing SDS-PAGE): fully reduced MEROS-GFP in vivo
[2]
  MEROS-GFP ratio (plate reader): increased the MEROS-GFP ratio in a dose-dependent manner
[3]; DTT 0.2, 0.5, 10 mM, FIGS. 15 and 16
  Ratio of fluorescence from excitation at 488 nm versus 405 nm (FACS): dose dependent increase
[3]; normalized to untreated, DTT 0.2-10 mM, 1 mM H2O2 30 min, TM 5 μM, TG 10 nM 24 h or 1 μM 4 h, BreA 100 ng/mL, MG132, palmitate 0.2-0.5 mM, hIAPP 10 μM, 24 h, FIGS. 17-24
  Median MEROS-GFP ratio (FACS): increased the median MEROS-GFP ratio in a dose-dependent manner
[4]
  MEROS-GFP fluorescence from 476 nm excitation: significantly increased
[5]
  Time to reduction of the ER (MEROS-GFP ratio): ER could be reduced within a few minutes
[6]; 0.2 mM DTT challenge for 2 hours, 96-well plates, untreated 0.037
  Average MEROS-GFP ratio in the pilot screen: 0.069 (S.D. =0.006)

## C[C@H](CCC(=O)NCCS(=O)(=O)O)[C@H]1CC[C@H]2[C@@H]3[C@@H](O)C[C@@H]4C[C@H](O)CC[C@]4(C)[C@H]3CC[C@]12C [TUDCA, tauroursodeoxycholic acid]
[7]
  ER redox state (median MEROS-GFP ratio): shift the ER towards an oxidizing environment
INS-1 832/13 cells [8]; 10 nM thapsigargin, 10 μM pioglitazone or 500 μg/mL TUDCA, FIG. 38 left panel
  Cell death (percentage of dead cells): protect cells from death under ER stress conditions

## CN1CCc2cccc3c2[C@H]1Cc1ccc(O)c(O)c1-3 [apomorphine]
INS-1 832/13 cells [9]
  Population with lower mitochondrial membrane potential: decreased the population with lower mitochondrial membrane potential
[10]
  Cell death of WFS1-knockdown cells: could protect WFS1-knockdown β-cells from cell death
  Cleavage of PARP (caspase 3 substrate): suppressed
  Cleavage of caspase 3: suppressed cleavage of caspase 3
Human islets
  Thapsigargin-mediated cell death: could protect human islets from thapsigargin-mediated cell death
INS-1 832/13 cells [8]; 10 nM thapsigargin and 10 nM apomorphine, FIG. 43
  Cell death (percentage of dead cells): protected INS-1 832/13 cells from ER stress-mediated cell death
[11]
  Population of cells that had reduced ER: decreased the population of cells that had reduced ER
INS-1 832/13 cells [12]
  ER stress-induced cell death (propidium iodide): suppressed ER stress-induced cell death

## COC1=CC(=O)C[C@@H](C)[C@]12Oc1c(Cl)c(OC)cc(OC)c1C2=O [griseofulvin]
INS-1 832/13 cells [13]
  Toxic effects on cells: strong toxic effects
[6]; DTT screen, 0.4 mM palmitate + 20 mM glucose screen, FACS confirmation with 0.5 mM palmitate
  Outcome in the screening assays: positively identified in the screening assays
